Data from publication PMC11243196, “Identification of Benzothiazoles Bearing 1,3,4-Thiadiazole as Antiproliferative Hybrids Targeting VEGFR-2 and BRAF Kinase: Design, Synthesis, BIO Evaluation and In Silico Study” (Molecules, 2024).
Read-outs that look alike come from different tables or passages of the source.

Legend:
HePG-2 = assay: MTT antiproliferative assay, HePG-2; assay type: cell-based; details: Homo sapiens, HepG2; hepatocellular carcinoma HePG-2, MTT
HCT-116 = assay: MTT antiproliferative assay, HCT-116; assay type: cell-based; details: Homo sapiens, HCT-116, read-out: IC50 (µM) HCT-116
MCF-7 = assay: MTT antiproliferative assay, MCF-7; assay type: cell-based; details: Homo sapiens, MCF7; breast cancer MCF-7, MTT
WI-38 cells = assay: Cytotoxicity against normal human cells, WI-38; assay type: cell-based; details: normal lung cell line WI-38
[1] = test system: HePG-2, HCT-116 and MCF-7 cell lines; assay: MTT antiproliferative assay, range over the three cancer cell lines; assay type: cell-based; details: Homo sapiens
Experimental: Sorafenib was used as a positive control medication.
As previously documented, the in vitro anticancer efficacy of the produced hybrids was evaluated using an MTT test. The used cell lines was bought from Vacsera (Giza, Egypt).

VEGFR-2 = VEGFR-2 (Homo sapiens, UniProt P35968); assay: In vitro VEGFR-2 kinase inhibitory assay; assay type: biochemical
Chain of VEGFR-2 (P35968 20-1356): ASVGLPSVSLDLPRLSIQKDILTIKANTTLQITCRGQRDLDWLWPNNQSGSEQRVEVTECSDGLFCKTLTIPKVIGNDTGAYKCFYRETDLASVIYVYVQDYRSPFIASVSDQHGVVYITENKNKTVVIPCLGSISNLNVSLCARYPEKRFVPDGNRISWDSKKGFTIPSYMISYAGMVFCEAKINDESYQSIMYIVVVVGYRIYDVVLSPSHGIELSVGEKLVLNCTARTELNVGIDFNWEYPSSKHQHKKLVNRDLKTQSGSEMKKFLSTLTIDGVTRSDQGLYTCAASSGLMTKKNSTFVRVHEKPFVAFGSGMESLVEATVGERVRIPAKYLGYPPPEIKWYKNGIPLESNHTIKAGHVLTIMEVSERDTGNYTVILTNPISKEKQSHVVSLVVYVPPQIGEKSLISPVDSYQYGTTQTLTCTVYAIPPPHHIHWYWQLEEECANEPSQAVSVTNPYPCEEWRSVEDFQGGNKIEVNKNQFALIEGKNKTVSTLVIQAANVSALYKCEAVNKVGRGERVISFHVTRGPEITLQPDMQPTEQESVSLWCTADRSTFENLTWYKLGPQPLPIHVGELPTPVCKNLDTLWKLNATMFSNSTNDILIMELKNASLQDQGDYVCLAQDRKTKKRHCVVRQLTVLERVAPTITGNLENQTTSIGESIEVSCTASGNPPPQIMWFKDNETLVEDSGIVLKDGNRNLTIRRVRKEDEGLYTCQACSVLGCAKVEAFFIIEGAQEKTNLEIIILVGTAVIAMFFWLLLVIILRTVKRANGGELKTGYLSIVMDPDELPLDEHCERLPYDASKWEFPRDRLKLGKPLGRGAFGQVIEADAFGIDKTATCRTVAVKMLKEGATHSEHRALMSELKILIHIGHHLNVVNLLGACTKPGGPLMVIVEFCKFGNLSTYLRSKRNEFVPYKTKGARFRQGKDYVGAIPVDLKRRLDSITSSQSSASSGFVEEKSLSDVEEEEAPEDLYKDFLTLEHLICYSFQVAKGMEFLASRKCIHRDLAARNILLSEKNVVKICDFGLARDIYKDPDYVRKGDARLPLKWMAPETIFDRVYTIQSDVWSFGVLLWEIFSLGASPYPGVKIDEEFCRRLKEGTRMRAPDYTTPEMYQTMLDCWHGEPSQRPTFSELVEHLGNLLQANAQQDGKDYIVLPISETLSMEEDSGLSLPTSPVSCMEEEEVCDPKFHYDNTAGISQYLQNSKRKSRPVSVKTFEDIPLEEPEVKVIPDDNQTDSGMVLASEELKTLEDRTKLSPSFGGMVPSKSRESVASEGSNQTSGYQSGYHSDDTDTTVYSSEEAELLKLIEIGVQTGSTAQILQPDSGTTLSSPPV
Experimental: […]. The in vitro assays were carried out as previously described.

BRAF (V600E) = BRAF (V600E) (Homo sapiens, UniProt P15056, V600E); assay: In vitro BRAF (V600E) kinase inhibitory assay; assay type: biochemical
Chain of BRAF (V600E) (P15056 whole entry V600E): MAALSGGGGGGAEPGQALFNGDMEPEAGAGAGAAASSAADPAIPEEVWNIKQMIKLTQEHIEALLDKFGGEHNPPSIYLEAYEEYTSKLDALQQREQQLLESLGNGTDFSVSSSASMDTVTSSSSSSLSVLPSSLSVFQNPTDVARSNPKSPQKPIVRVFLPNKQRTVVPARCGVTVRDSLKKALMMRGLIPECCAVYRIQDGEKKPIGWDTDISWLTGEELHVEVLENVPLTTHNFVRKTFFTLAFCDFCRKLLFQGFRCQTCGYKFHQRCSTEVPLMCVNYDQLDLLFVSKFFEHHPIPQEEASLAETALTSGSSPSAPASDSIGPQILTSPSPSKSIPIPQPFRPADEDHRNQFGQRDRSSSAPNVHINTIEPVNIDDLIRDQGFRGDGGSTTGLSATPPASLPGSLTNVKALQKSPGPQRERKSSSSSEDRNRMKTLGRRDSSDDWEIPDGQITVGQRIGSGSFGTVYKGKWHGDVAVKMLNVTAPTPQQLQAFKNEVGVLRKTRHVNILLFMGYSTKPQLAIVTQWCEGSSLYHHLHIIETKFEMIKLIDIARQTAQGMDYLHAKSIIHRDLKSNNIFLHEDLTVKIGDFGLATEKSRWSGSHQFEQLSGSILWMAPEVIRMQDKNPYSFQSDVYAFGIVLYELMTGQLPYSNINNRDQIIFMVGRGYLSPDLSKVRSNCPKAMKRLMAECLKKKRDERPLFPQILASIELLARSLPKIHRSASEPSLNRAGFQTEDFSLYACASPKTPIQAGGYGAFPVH

FGFR-1 = test system: FGFR-1; set-up: method as in PMID 32045054; details: read-out: IC50 against FGFR-1; cited from earlier work
PDGFR-β = test system: PDGFR-β; set-up: method as in PMID 32045054; details: read-out: IC50 against PDGFR-β; cited from earlier work
VEGFR-2 in MCF-7 cells = test system: VEGFR-2 in MCF-7 cells; set-up: method as in PMID 32045054; details: cited from earlier work
BRAF^V600E = test system: BRAF^V600E; set-up: method as in PMID 23906342; details: read-out: IC50 against BRAF^V600E; cited from earlier work
MCF-7 cells [2] = assay: Cell cycle analysis by DNA flow cytometry (PI); assay type: cell-based, human
Experimental: To ascertain the precise cell cycle phase at which our highly promising chemical 4f causes the MCF7 breast cancer cells to cease their progression, we conducted cell cycle analysis and apoptotic experiments utilizing DNA flow cytometry.
As previously documented, the cell cycle study was conducted on the MCF-7 cell lines, stained with PI and examined using a Calibur flow cytometer.

MCF-7 cells [3] = assay: Annexin V-FITC/PI apoptosis detection; assay type: cell-based, human; details: 24 h, untreated control 0.89%
Description: The level of apoptosis was quantified utilizing the MCF-7 cell lines and Annexin V-FITC/PI apoptosis detection kit, as documented in the literature.

BRAFV600 = details: read-out: IC50 against BRAFV600; cited from earlier work
CRAF = details: read-out: IC50 against CRAF; cited from earlier work
[4] = range over HePG-2, HCT-116, MCF-7, read-out: IC50 range of the compound over the cancer cell lines
[5] = one range for the group 4a, 4f, 4l, 4r over three cancer cell lines, read-out: IC50 values ranging, against three cancer cell lines
[6] = read-out: IC50 range of the compound over the cancer cell lines

Compound	IC50 (HePG-2)	IC50 (HCT-116)	IC50 (MCF-7)	IC50 (WI-38 cells)	IC50 [1, 4]	also measured
O=C(CSc1nnc(NC(=O)Nc2ccccc2)s1)Nc1nc2ccc(Cl)cc2s1 [4m, N-(6-Chlorobenzo[d]thiazol-2-yl)-2-((5-(3-phenylureido)-1,3,4-thiadiazol-2-yl)thio)acetamide]	29.8 ± 2 µM	34.4 ± 2.1 µM	28.9 ± 1.9 µM	74.5 ± 3.8 µM	28.9 to 34.4 µM	
COc1ccc(NC(=O)Nc2nnc(SCC(=O)Nc3nc4ccc(Cl)cc4s3)s2)cc1 [4o, N-(6-Chlorobenzo[d]thiazol-2-yl)-2-((5-(3-(4-methoxyphenyl)ureido)-1,3,4-thiadiazol-2-yl)thio)acetamide]	35 ± 2.4 µM	51.6 ± 2.8 µM	43.5 ± 2.4 µM	26.4 ± 1.8 µM		
COc1ccc(NC(=O)Nc2nnc(SCC(=O)Nc3nc4ccc(C)cc4s3)s2)cc1 [4i, 2-((5-(3-(4-Methoxyphenyl)ureido)-1,3,4-thiadiazol-2-yl)thio)-N-(6-methylbenzo[d]thiazol-2-yl)acetamide]	53.1 ± 2.7 µM	76.7 ± 3.9 µM	59.5 ± 3.1 µM	45.5 ± 2.6 µM	53.1 to 76.7 µM	
O=C(CSc1nnc(NC(=O)Nc2ccc(C(F)(F)F)c(Cl)c2)s1)Nc1nc2ccc(Cl)cc2s1 [4r, 2-((5-(3-(3-Chloro-4-(trifluoromethyl)phenyl)ureido)-1,3,4-thiadiazol-2-yl)thio)-N-(6-chlorobenzo[d]thiazol-2-yl)acetamide]	8.1 ± 0.6 µM	7.81 ± 0.6 µM	3.85 ± 0.2 µM	38.8 ± 2.2 µM		IC50 (VEGFR-2): 0.794 µM; IC50 (BRAF (V600E)): 1.36 µM; IC50 [1, 5]: 3.58 to 15.4 µM; IC50 [1, 6]: 3.85 to 8.1 µM
COc1cc(/C=N/NC(=O)COc2ccc(-c3nc4ccccc4s3)cc2OC)ccc1O [III]						IC50 (FGFR-1): 0.19 µM; IC50 (PDGFR-β): 0.08 µM; inhibitory effect on VEGFR-2 in MCF-7 cells (VEGFR-2 in MCF-7 cells): 83%
O=C(CSc1nnc(NC(=O)Nc2ccccc2)s1)Nc1nc2ccccc2s1 [4a, N-(Benzo[d]thiazol-2-yl)-2-((5-(3-phenylureido)-1,3,4-thiadiazol-2-yl)thio)acetamide]	12.9 ± 0.9 µM	9.94 ± 0.8 µM	5.91 ± 0.3 µM	66.2 ± 3.5 µM		IC50 (VEGFR-2): 0.342 µM; IC50 (BRAF (V600E)): 0.677 µM; IC50 [1, 5]: 3.58 to 15.4 µM; IC50 [1, 6]: 5.91 to 12.9 µM; melting point: 273 to 275 °C
N#Cc1c(Oc2ccc(F)c(NC(=O)Cc3cccc(C(F)(F)F)c3)c2)ccc2nc(NC(=O)C3CC3)sc12 [TAK-632]						IC50 (BRAF^V600E): 0.0024 µM
COc1ccc(NC(=O)Nc2nnc(SCC(=O)Nc3nc4ccccc4s3)s2)cc1 [4c, N-(Benzo[d]thiazol-2-yl)-2-((5-(3-(4-methoxyphenyl)ureido)-1,3,4-thiadiazol-2-yl)thio)acetamide]	42.2 ± 2.6 µM	65.5 ± 3.5 µM	54.5 ± 2.9 µM	91.3 ± 4.6 µM	42.2 to 65.5 µM	
Cc1ccc2nc(NC(=O)CSc3nnc(NC(=O)Nc4ccc(C(F)(F)F)c(Cl)c4)s3)sc2c1 [4l, 2-((5-(3-(3-Chloro-4-(trifluoromethyl)phenyl)ureido)-1,3,4-thiadiazol-2-yl)thio)-N-(6-methylbenzo[d]thiazol-2-yl)acetamide]	15.4 ± 1.2 µM	13.5 ± 1 µM	9.46 ± 0.6 µM	47.5 ± 2.7 µM	9.46 to 15.4 µM	IC50 [1, 5]: 3.58 to 15.4 µM
O=C(CSc1nnc(NC(=O)Nc2ccc(Cl)cc2)s1)Nc1nc2ccccc2s1 [4d, N-(Benzo[d]thiazol-2-yl)-2-((5-(3-(4-chlorophenyl)ureido)-1,3,4-thiadiazol-2-yl)thio)acetamide]	30.2 ± 2.3 µM	39.7 ± 2.3 µM	33.6 ± 2 µM	89.1 ± 4.3 µM	30.2 to 33.6 µM	
O=C(CSc1nnc(NC(=O)Nc2ccc(Cl)cc2)s1)Nc1nc2ccc(Cl)cc2s1 [4p, N-(6-Chlorobenzo[d]thiazol-2-yl)-2-((5-(3-(4-chlorophenyl)ureido)-1,3,4-thiadiazol-2-yl)thio)acetamide]	57 ± 3.1 µM	71.3 ± 3.7 µM	62.6 ± 3.2 µM	94.1 ± 4.9 µM		
Cc1ccc2nc(NC(=O)CSc3nnc(NC(=O)Nc4ccc(F)cc4)s3)sc2c1 [4k, 2-((5-(3-(4-Fluorophenyl)ureido)-1,3,4-thiadiazol-2-yl)thio)-N-(6-methylbenzo[d]thiazol-2-yl)acetamide]	64.2 ± 3.7 µM	92 ± 4.6 µM	69.5 ± 3.5 µM	58.5 ± 3.2 µM		
O=C(CSc1nnc(NC(=O)Nc2ccc(F)cc2)s1)Nc1nc2ccccc2s1 [4e, N-(Benzo[d]thiazol-2-yl)-2-((5-(3-(4-fluorophenyl)ureido)-1,3,4-thiadiazol-2-yl)thio)acetamide]	63.4 ± 3.4 µM	82.5 ± 4.2 µM	67.1 ± 3.4 µM	> 100 µM	63.4 to 82.5 µM	
Cc1ccc(NC(=O)Nc2nnc(SCC(=O)Nc3nc4ccc(C)cc4s3)s2)cc1 [4h, N-(6-Methylbenzo[d]thiazol-2-yl)-2-((5-(3-(p-tolyl)ureido)-1,3,4-thiadiazol-2-yl)thio)acetamide]	37.4 ± 2.5 µM	56.2 ± 3 µM	40.6 ± 2.3 µM	87.8 ± 4.4 µM	37.4 to 56.2 µM	
Cc1ccc2nc(NC(=O)CSc3nnc(NC(=O)Nc4ccc(Cl)cc4)s3)sc2c1 [4j, 2-((5-(3-(4-Chlorophenyl)ureido)-1,3,4-thiadiazol-2-yl)thio)-N-(6-methylbenzo[d]thiazol-2-yl)acetamide]	78.1 ± 3.9 µM	> 100 µM	84.2 ± 4.2 µM	> 100 µM		
O=C(CSc1nnc(NC(=O)Nc2ccc(C(F)(F)F)c(Cl)c2)s1)Nc1nc2ccccc2s1 [4f, N-(Benzo[d]thiazol-2-yl)-2-((5-(3-(3-chloro-4-(trifluoromethyl)phenyl)ureido)-1,3,4-thiadiazol-2-yl)thio)acetamide]	5.05 ± 0.3 µM	6.21 ± 0.4 µM	2.74 ± 0.1 µM	41.2 ± 2.4 µM		IC50 (VEGFR-2): 0.071 µM; IC50 (BRAF (V600E)): 0.194 µM; Cell Cycle Distribution (%) G2-M (MCF-7 cells [2]; untreated 15.85%): 12.77%; Cell Cycle Distribution (%) S (MCF-7 cells [2]; untreated 26.33%): 22.72%; Cell Cycle Distribution (%) G0-G1 (MCF-7 cells [2]; untreated 57.82%): 64.51%; proportion of apoptotic cells (early and late) (MCF-7 cells [3]): 37.83%; IC50 [1, 5]: 3.58 to 15.4 µM; IC50 [1, 6]: 2.74 to 5.05 µM
CNC(=O)c1cc(Oc2ccc3nc(NC(=O)Nc4ccc(Cl)c(Cl)c4)sc3c2)ccn1 [IV]						IC50 (BRAFV600): 0.095 µM; IC50 (CRAF): 0.015 µM
Cc1ccc(NC(=O)Nc2nnc(SCC(=O)Nc3nc4ccc(Cl)cc4s3)s2)cc1 [4n, N-(6-Chlorobenzo[d]thiazol-2-yl)-2-((5-(3-(p-tolyl)ureido)-1,3,4-thiadiazol-2-yl)thio)acetamide]	32.8 ± 2.4 µM	44.8 ± 2.5 µM	36.7 ± 2.1 µM	> 100 µM		
O=C(CSc1nnc(NC(=O)Nc2ccc(F)cc2)s1)Nc1nc2ccc(Cl)cc2s1 [4q, N-(6-Chlorobenzo[d]thiazol-2-yl)-2-((5-(3-(4-fluorophenyl)ureido)-1,3,4-thiadiazol-2-yl)thio)acetamide]	27.4 ± 2.2 µM	25.4 ± 1.8 µM	21.7 ± 1.5 µM	49.7 ± 2.9 µM	21.7 to 27.4 µM	
Cc1ccc(NC(=O)Nc2nnc(SCC(=O)Nc3nc4ccccc4s3)s2)cc1 [4b, N-(Benzo[d]thiazol-2-yl)-2-((5-(3-(p-tolyl)ureido)-1,3,4-thiadiazol-2-yl)thio)acetamide]	48.2 ± 2.5 µM	61.8 ± 3.3 µM	46.5 ± 2.6 µM	81 ± 4.2 µM	46.5 to 61.8 µM	
Cc1ccc2nc(NC(=O)CSc3nnc(NC(=O)Nc4ccccc4)s3)sc2c1 [4g, N-(6-Methylbenzo[d]thiazol-2-yl)-2-((5-(3-phenylureido)-1,3,4-thiadiazol-2-yl)thio)acetamide]	22.9 ± 1.8 µM	19.6 ± 1.3 µM	16.5 ± 1.2 µM	79.4 ± 4 µM	16.5 to 22.9 µM	
